# Patent publication US10835500B2, “Medicament for accelerated wound healing” (Symrise AG, priority 2014, dated 2020)
# Assays:
# Type in all cases: cell-based, human
# p38 MAPK = assay: Western Blot, phosphorylation of p38 MAPK in HaCaT cells; conditions: 500 μM
# Description: (§1) In the following, an investigation was to be conducted to determine whether a MAPK signalling pathway is activated by Sandalore® stimulation in skin cells, and if so, which pathway is involved. For detection, HaCaT cells were stimulated for 0-30 min with 500 μM of Sandalore®, and the proteins were then isolated and used in Western Blot assays.
# In order to reveal a possible interaction of the two MAPK signalling pathways, ERK1/2 phosphorylation in the presence of the p38 MAPK inhibitor SB203580 and p38 MAPK phosphorylation in the presence of the ERK1/2 MAPK inhibitor U0126 were investigated.
# A) Western Blot for investigating the phosphorylation of the MAP kinases in HaCaT cells stimulated for 0, 5, 15 and 30 min with Sandalore®(500 μM). […] ERK1/2: 42/44 kDa; p38: 43 kDa; JNK/SAPK: 46/54 kDA; ▪-tubulin: 52 kDa. B) Quantitative evaluation of p38 and ERK1/2 phosphorylation of HaCaT cells stimulated for 30 min with Sandalore®(500 μM) or additionally with the p38 inhibitor 5B203580 (10 μM) or ERK1/2 inhibitor U0126 (10 μM). For evaluation, the ratio of the phosphorylated (p) and unphosphorylated proteins was established and compared to that of untreated cells. Mean values including standard error. Mann-Whitney U test. *: p<0.05; ***: p<0.001. In C), the inhibitors of the respective other MAP kinase were used, and phosphorylation was compared to the cells stimulated with Sandalore® (500 μM) alone. Mean values including standard error. Mann-Whitney U test. *: p<0.05. The Western Blot analyses were carried out with three different protein isolations.
# ERK1/2 MAPK = assay: Western Blot, phosphorylation of ERK1/2 MAPK in HaCaT cells; conditions: 500 μM
# Description: as §1
# In order to reveal a possible interaction of the two MAPK signalling pathways, ERK1/2 phosphorylation in the presence of the p38 MAPK inhibitor SB203580 and p38 MAPK phosphorylation in the presence of the ERK1/2 MAPK inhibitor U0126 were investigated. Phosphorylation was increased for both kinases in the presence of the respective inhibitors compared to the cells stimulated with Sandalore® only. This effect was significant for p38 MAPK (FIG. 17c).
# (§2) Effect of Sandalore® stimulation on phosphorylation of MAP kinases in skin cells. A) Western Blot for investigating the phosphorylation of the MAP kinases in HaCaT cells stimulated for 0, 5, 15 and 30 min with Sandalore®(500 μM). In order to confirm uniform protein volume, ▪-tubulin was used as a control. ERK1/2: 42/44 kDa; p38: 43 kDa; JNK/SAPK: 46/54 kDA; ▪-tubulin: 52 kDa. B) Quantitative evaluation of p38 and ERK1/2 phosphorylation of HaCaT cells stimulated for 30 min with Sandalore®(500 μM) or additionally with the p38 inhibitor 5B203580 (10 μM) or ERK1/2 inhibitor U0126 (10 μM). For evaluation, the ratio of the phosphorylated (p) and unphosphorylated proteins was established and compared to that of untreated cells. Mean values including standard error. Mann-Whitney U test. *: p<0.05; ***: p<0.001. In C), the inhibitors of the respective other MAP kinase were used, and phosphorylation was compared to the cells stimulated with Sandalore® (500 μM) alone. Mean values including standard error. Mann-Whitney U test. *: p<0.05. The Western Blot analyses were carried out with three different protein isolations.
# JNK/SAPK = assay: Western Blot, phosphorylation of JNK/SAPK in HaCaT cells; conditions: 500 μM, 0-30 min
# Description: as §1
# as §2, with “The Western Blot analyses were carried out with three different protein isolations.” left out
smiles,measurement,setting,value
CC1=CCC(CCC(C)C(C)O)C1(C)C (centres unmarked) [Sandalore®],"phosphorylation of p38 MAPK, quantification",p38 MAPK; 30-minute stimulation,significant increase
same,phosphorylation of p38 MAPK,p38 MAPK; within 5-30 min,increased phosphorylation
same,"phosphorylation of ERK1/2 MAPK, quantification",ERK1/2 MAPK; 30-minute stimulation,significant increase
same,phosphorylation of ERK1/2 MAPK,ERK1/2 MAPK; within 5-30 min,increased phosphorylation
same,phosphorylation of JNK/SAPK,JNK/SAPK,no phosphorylation of JNK/SAPK
